Eleven compounds from patent publication US11786534B2 (TAIHO PHARMACEUTICAL CO., LTD., priority 2019, dated 2023) can be followed below.

As a reminder, the IC50 is the concentration that gives 50% inhibition. Higher therefore signals weaker potency.

Molecules are shown by their SMILES. Where only a bound is given, the exact number is not on record here.

What all share (type): biochemical
The target of one assay is T1, human EGFR (L858R/C797S) (Homo sapiens, UniProt P00533, C797S/L858R).
T1 construct: purchased SignalChem
As to the kind of experiment: Inhibitory activity against EGFR (L858R/C797S) kinase. The following applies: Test Example 1, Table 5; ATP 4 μM, 90 minutes. Here is the method: 4) Measurement of inhibitory activity against EGFR (L858R/C797S) kinase
The compounds of the present invention were measured for their inhibitory activity aeainst EGFR (L858R/C797S) kinase activity.
The materials, measurement procedures and data analysis method used in this test are stibstantially the same as those shown in the section “Measurement of inhibitory activity against EGFR (d746-750/C797S) kinase.” However, among the materials, the kinase protein used was a purified recombinant human EGFR (C797S/L858R) protein purchased from SignalChem. In the measurement procedures, the final concentration of ATP was set to 4 μM, and the incubation time for kinase reaction was set to 90 minutes. Finally, data analysis was conducted determine the IC50 value (nM) of each compound against EGFR (L858R/C797S).
In accordance with the same procedures as shown in 4) in Test Example 1, the compounds of the present invention were measured for their inhibitor activity against. EGFR (L858R/C797S) kinase activity.

The target in assay [1] is T2, human EGFR (d746-750/T790M/C797S) (Homo sapiens, UniProt P00533, C797S/DEL746-750/T790M).
T2 construct: made in house; host or cells: Sf9 insect cells, baculovirus
As to the kind of experiment: Inhibitory activity against EGFR (d746-750/T790M/C797S) kinase. To be noted: Test Example 1, Table 2; ATP 6 μM, 25° C., 120 minutes. Here is the method: 1) Measurement of inhibitory activity against EGFR (d746-750/T790M/C797S) kinase
The compounds of the above examples and comparative examples were measured for their inhibitory activity against EGFR (d746-750/T790M/C797S) kinase activity. Among the materials required for measurement of this inhibitory activity, the kinase protein (SEQ ID NO: 1) used was prepared as follows: the cytoplasmic domain of human EGFR (d746-750/T790M/C797S) fused at the ammo terminal end with a glutathione-S-transferase (GST) tag was expressed M insect cells (Sf9) by the baculovirus expression system and then purified an a glutathione sepharose column. For use as a substrate peptide, a peptide biotinylated at the N-terminal end (biotin -EEPLYWSFPAKKK) was synthesized by reference to Perkin Elmer LabChip® series reagent FL-Peptide 22.
Procedures for measurement of the inhibitory activity are as follows. First, the compounds of the present invention were each dissolved in dimethyl sulfoxide (DMSO), and their serial dilutions were then prepared with DMSO. Secondly, each compound serial dilution (final concentration of DMSO during kinase reaction: 2.5%) or DMSO (final concentration: 2.5%) was mixed with a solution containing the substrate peptide (final concentration: 250 nM), magnesium chloride (final concentration: 10 mM), manganese chloride (final concentration: 10 mM) and ATP (final concentration: 6 μM) in a kinase reaction buffer (Carna Biosciences Inc., Japan), and the EGFR (d746-750/T790M/C797S) protein was further added thereto, followed by incubation at 25° C. for 120 minutes to cause kinase reaction. To the reaction solution, EDTA was added to give a final concentration of 24 mM to thereby stop the reaction, followed by addition of a phospholylated tyrosine detection solution containing europium-labeled anti-phosphorylated tyrosine antibody PT66 (Perkin Elmer) and SureLight APC-SA (Perkin Elmer). The reaction solution was allowed to stand at room temperature for 2 hours or longer. As a background, DMSO was used instead of each compound solution in .DMSO, and EDIA was added prior to the addition of the EGFR EGFR (d746-750/T790M/C797S) protein, followed by incubation at 25° C. for 120 minutes. The same detection solution was also added to this reaction solution, which was then allowed to stand for 2 hours or longer. Finally, all the test samples were measured with a PHERAstar FS reader (BMG LABTECH) for their fluorescence intensity at two wavelengths of 620 nm and 665 nm upon irradiation with an excitation light of 337 nm wavelength, and the ratio of fluorescence intensities at these two wavelengths was obtained as data for each compound.
Moreover, as control compounds, the above Comparative Example A (Example 3 in WO2013/118817) and Comparative Example B (Example 35 in WO2013/118817) known to have EGFR inhibitory activity were used.
In accordance with the same procedures as shown in 1) in Test Example 1, the compounds of the above examples were measured for their inhibitory activity against EGFR (d746-750/T790M/C797S) kinase activity.

Assay [2] deals with T3, human EGFR (d746-750/C797S) (Homo sapiens, UniProt P00533, C797S/DEL746-750).
T3 construct: purchased SignalChem
The assay is described as follows: Inhibitory activity against EGFR (d746-750/C797S) kinase. To be noted: Test Example 1, Table 4; ATP 14 μM, 60 minutes. The protocol:
3) Measurement of inhibitory activity against EGFR (d746-750/C797S) kinase
The compounds of the present invention were measured for their inhibitory activity against EGFR (d746-750/C797S) kinase activity.
The materials, measurement procedures and data analysis method used in this test are substantially the same as those shown in the section “Measurement of inhibitory activity aiainst EGFR (d746-750/T790M/C797S) kinase.” However, among the materials, the kinase protein used was a purified recombinant human EGFR (d746-750/C797S) protein purchased from SignalChem, while the kinase reaction buffer used was 13.5 mM Tris (pH 7.5) containing 2 mM dithiothreitol and 0.009% Tween-20. In the measurement procedures, the final concentration of ATP was set to 14 μM, the final concentration of maganesium chloride was set to 20 mM, the final concentration of manganese chloride was set to 12.5 mM, the incubation time for kinase reaction was set to 60 minutes, and the final concentration of EDTA used to stop the kinase reaction was set to 40 mM. Finally, data analysis was conducted to determine to IC50 value (nM) of each compound against EGFR (d746-750/C797S).
In accordance with the same procedures as shown in 3) in Test Example 1, the compounds of the present invention were measured for their inhibitory activity against EGFR (d746-750/C797S) kinase activity.

Another assay has as its target T4, human EGFR (WT) (Homo sapiens, UniProt P00533).
T4 construct: purchased Carna Biosciences Inc., Japan
As to the kind of experiment: Inhibitory activity against EGFR (WT) kinase. To be noted: Test Example 1, Table 6; ATP 1.5 μM. The protocol: The compounds of the present invention were measured for their inhibitory activity nainst EGFR (WT) kinase activity.
The materials, measurement procedures and data analysis method used in this test. are substantially the same as those shown in the section “Measurement of inhibitory activity against EGFR (d746-750/T790M/C797S) kinase.” However, among the materials, the kinase protein used was a purified recombinant human EGFR (WT) purchased from Carna Biosciences Inc., Japan. In the measurement procedures, the final concentration of ATP was set to 1.5 μM. Finally, data analysis was conducted to determine the IC50 value (nM) of each compound against EGFR (WT).
In accordance with the same procedures as shown in 5) in Test Example 1, the compounds of the present invention were measured for their inhibitory activity against. EGFR (WT) kinase activity.

T1 sequence (P00533 25-1210 C797S/L858R): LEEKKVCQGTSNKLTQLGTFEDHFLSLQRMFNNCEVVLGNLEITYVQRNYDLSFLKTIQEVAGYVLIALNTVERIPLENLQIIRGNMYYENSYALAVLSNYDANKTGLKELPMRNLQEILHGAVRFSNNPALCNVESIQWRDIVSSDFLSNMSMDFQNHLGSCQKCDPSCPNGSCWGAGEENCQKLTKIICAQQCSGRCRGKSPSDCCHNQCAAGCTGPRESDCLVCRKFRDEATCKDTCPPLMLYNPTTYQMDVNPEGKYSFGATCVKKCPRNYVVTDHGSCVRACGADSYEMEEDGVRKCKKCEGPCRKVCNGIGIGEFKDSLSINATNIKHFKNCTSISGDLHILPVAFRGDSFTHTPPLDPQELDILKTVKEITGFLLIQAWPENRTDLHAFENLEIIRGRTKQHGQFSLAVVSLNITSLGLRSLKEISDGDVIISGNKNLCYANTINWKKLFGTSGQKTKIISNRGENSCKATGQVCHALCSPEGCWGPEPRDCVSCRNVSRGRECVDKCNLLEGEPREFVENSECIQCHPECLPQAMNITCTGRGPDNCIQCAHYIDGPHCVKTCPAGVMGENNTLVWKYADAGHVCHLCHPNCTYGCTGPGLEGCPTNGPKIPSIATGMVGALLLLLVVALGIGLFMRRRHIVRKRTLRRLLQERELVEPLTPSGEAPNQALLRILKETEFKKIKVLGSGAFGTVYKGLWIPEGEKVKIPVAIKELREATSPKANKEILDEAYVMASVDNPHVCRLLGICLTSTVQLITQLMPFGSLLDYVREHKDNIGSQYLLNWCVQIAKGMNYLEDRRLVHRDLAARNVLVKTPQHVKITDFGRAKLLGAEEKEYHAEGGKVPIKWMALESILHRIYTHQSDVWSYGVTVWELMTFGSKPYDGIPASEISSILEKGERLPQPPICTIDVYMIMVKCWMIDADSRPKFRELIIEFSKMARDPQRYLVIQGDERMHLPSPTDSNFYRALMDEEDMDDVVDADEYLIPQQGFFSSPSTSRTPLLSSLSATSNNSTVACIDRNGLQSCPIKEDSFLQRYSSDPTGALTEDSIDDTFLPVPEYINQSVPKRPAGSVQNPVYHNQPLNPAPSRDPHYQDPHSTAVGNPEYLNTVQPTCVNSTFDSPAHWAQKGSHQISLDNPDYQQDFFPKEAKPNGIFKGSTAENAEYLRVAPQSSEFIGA
T4 sequence (P00533 25-1210): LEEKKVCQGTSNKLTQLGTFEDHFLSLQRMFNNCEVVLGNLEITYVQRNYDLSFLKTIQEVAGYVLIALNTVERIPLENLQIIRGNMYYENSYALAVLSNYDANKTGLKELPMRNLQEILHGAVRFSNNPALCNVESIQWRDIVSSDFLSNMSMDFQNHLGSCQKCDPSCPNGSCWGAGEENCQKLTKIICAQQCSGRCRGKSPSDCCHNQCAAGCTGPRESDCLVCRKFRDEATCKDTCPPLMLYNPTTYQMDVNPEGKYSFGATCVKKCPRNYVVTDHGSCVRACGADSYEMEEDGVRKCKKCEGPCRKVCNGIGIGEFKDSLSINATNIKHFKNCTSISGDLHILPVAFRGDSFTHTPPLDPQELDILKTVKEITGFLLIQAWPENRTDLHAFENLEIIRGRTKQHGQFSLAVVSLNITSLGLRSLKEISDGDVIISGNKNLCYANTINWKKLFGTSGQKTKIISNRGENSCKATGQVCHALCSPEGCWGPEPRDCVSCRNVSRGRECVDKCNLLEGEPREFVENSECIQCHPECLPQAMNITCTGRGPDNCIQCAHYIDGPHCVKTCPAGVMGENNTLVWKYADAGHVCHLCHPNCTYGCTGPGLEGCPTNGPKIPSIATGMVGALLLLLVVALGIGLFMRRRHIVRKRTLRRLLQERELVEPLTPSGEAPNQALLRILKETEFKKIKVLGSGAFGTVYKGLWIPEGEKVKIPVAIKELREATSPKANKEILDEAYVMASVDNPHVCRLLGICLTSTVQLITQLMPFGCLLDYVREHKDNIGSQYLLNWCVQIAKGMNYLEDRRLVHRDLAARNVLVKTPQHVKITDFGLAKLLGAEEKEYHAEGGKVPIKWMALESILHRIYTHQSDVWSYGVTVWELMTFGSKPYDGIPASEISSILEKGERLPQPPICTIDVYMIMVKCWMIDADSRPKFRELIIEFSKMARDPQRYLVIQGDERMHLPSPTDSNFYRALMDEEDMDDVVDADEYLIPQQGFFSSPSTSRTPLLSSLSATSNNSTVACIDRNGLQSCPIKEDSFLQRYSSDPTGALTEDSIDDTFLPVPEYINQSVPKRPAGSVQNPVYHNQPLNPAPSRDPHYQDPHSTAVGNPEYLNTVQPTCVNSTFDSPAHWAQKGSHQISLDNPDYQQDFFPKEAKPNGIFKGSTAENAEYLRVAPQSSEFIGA
T3 sequence (P00533 with tags, fused parts or gaps DEL746-750/C797S): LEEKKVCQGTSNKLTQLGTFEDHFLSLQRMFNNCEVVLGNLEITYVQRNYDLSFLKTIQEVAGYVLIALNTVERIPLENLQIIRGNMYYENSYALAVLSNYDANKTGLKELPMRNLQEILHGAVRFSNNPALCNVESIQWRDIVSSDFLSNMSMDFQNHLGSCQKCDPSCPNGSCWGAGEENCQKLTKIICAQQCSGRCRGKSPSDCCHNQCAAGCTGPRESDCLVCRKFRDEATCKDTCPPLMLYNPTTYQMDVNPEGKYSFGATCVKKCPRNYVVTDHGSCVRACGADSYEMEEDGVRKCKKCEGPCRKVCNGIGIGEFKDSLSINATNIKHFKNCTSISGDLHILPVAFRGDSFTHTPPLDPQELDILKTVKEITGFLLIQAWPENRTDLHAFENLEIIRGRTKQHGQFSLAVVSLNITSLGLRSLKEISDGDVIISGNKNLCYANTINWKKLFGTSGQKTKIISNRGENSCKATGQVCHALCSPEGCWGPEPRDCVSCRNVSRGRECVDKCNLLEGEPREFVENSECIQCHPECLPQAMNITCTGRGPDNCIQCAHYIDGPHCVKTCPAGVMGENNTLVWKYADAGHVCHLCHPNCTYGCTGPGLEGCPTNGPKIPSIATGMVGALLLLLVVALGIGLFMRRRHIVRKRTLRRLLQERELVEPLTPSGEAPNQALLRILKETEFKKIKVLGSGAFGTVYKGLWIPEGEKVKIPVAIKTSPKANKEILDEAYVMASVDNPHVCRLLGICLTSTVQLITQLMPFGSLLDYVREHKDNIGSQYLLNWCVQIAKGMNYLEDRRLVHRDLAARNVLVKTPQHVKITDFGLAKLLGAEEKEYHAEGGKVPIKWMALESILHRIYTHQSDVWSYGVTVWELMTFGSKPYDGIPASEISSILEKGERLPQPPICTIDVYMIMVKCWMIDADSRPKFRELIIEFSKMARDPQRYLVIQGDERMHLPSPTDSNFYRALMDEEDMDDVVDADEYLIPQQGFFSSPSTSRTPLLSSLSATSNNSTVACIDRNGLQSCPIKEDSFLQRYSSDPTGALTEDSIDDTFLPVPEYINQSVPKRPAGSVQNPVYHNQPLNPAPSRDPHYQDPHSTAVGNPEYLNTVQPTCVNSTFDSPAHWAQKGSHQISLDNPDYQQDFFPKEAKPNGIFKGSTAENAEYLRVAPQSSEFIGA
T2 sequence (P00533 with tags, fused parts or gaps DEL746-750/T790M/C797S): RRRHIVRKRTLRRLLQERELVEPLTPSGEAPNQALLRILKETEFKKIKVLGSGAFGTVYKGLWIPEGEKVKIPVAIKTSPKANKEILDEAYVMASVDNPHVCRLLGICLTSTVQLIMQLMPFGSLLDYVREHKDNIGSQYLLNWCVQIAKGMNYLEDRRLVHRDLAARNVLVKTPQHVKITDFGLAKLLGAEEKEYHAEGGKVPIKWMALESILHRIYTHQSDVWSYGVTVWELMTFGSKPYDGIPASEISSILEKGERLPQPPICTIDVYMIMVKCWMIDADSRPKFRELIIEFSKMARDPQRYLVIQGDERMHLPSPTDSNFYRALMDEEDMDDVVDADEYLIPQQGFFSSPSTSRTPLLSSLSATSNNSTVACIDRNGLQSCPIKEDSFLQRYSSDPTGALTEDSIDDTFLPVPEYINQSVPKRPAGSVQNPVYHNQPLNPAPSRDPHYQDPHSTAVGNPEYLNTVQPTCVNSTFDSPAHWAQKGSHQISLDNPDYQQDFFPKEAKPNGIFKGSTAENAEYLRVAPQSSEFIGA

In the case of `C#Cc1c(-c2cnc3ccccc3c2)c2c(N)ncnc2n1C12CCC(N3CCN(C)C(=O)C3)(CC1)C2` [Example 5, 4-(4-(4-Amino-6-ethynyl-5-(quinolin-3-yl)-7H-pyrrolo[2,3-d]pyrimidin-7-yl)bicyclo-[2.2.1]heptan-1-yl)-1-methylpiperazin-2-one], the concentration for half-maximal inhibition (IC50) was 2.8 nM on human EGFR (L858R/C797S), 0.32 nM in assay [1], 1.2 nM in assay [2] and 4 nM against human EGFR (WT).
Taken in the same sequence, the figures for `C#Cc1c(-c2cnc3ccccc3c2)c2c(N)ncnc2n1C12CCC(O)(CC1)CC2` [Example 7, 4-(4-Amino-6-ethynyl-5-(quinoiln-3-yl)-7H-pyrrolo[2,3-d]pyrimidin-7-yl)bicyclo-[2.2.2]octan-1-ol] were 2.9 nM, 0.8 nM, 2.3 nM and 2.5 nM.
Taken in the same sequence, the figures for `C#Cc1c(-c2cnc3ccccc3c2)c2c(N)ncnc2n1C12CCC(NCc3cccnc3)(CC1)CC2` [Example 8, 6-Ethynyl-7-(4-((pyridin-3-ylmethyl)amino)bicyclo[2.2.2]octan-1-yl)-5-(quinolin-3-yl) -7H-pyrrolo[2,3-d]pyrimidine-4-amine] were 1.4 nM, less than 0.3 nM, 0.73 nM and 3.2 nM.
The corresponding values for `C#Cc1c(-c2cnc3ccccc3c2)c2c(N)ncnc2n1C12CCC(NC(=O)n3cccn3)(CC1)C2` [Example 21, N-(4-(4-Amino-6-ethynyl-5-(quinolin-3-yl)-7H-pyrrolo[2,3-d]pyrimidin-7-yl)bicyclo-[2.2.1]heptan-1-yl)-1H-pyrazole-1-carboxamide] are 0.98 nM, less than 0.3 nM, 0.78 nM and 1.7 nM.
As for `C#Cc1c(-c2cnc3ccccc3c2)c2c(N)ncnc2n1C12CCC(NC(=O)c3cnc(N(C)C)cn3)(CC1)C2` [Example 32, N-(4-(4-Amino-6-ethynyl-5-(quinolin-3-yl)-7H-pyrrolo[2,3-d]pyrimidin-7-yl)bicyclo-[2.2.1]heptan-1-yl)-5-(dimethylamino)pyrazine-2-carboxamide], the IC50 at human EGFR (L858R/C797S) was 0.78 nM; in assay [1] it was less than 0.3 nM; in assay [2], 0.59 nM; against human EGFR (WT), 1 nM.
Taken in the same sequence, the figures for `CC#Cc1c(-c2cnc3ccccc3c2)c2c(N)ncnc2n1C12CCC(NC(=O)c3ccnn3C)(CC1)C2` [Example 33, N-(4-(4-Amino-6-(propyn-1-yl)-5-(quinolin-3-yl)-7H-pyrrolo[2,3-d]pyrimidin-7-yl) -bicyclo[2.2.1]heptan-1-yl)-1-methyl-1H-pyrazole-5-carboxamide] were 2.3 nM, less than 0.3 nM, 1.9 nM and 1.9 nM.
Taken in the same sequence, the figures for `C#Cc1c(-c2cnc3ccccc3c2)c2c(N)ncnc2n1C12CCC(CN(C)C)(CC1)C2` [Example 40, 7-(4-((Dimethylamino)methyl)bicyclo[2.2.1]heptan-1-yl)-6-ethynyl-5-(quinolin-3-yl) -7H-pyrrolo[2,3-d]pyrimidine-4-amine] were 4 nM, less than 0.3 nM, 2.6 nM and 5 nM.
Taken in the same sequence, the figures for `C#Cc1c(-c2cnc3ccccc3c2)c2c(N)ncnc2n1C12CCC(CNCCF)(CC1)C2` [Example 54, 6-Ethynyl-7-(4-(((2-fluoroethyl)amino)methyl)bicyclo[2.2.1]heptan-1-yl)-5-(quinolin-3-yl)-7H-pyrrolo[2,3-d]pyrimidine-4-amine] were 2.8 nM, less than 0.3 nM, 1.5 nM and 6.3 nM.
`C#Cc1c(-c2cnc3ccccc3c2)c2c(N)ncnc2n1C12CCC(NC(=O)CN(C)C)(CC1)CC2` [Example 55]: the IC50 at human EGFR (L858R/C797S) is 1.2 nM; in assay [1] it was less than 0.3 nM; in assay [2], 0.86 nM; against human EGFR (WT) it was 1.2 nM.
For `C#Cc1c(-c2cnc3ccccc3c2)c2c(N)ncnc2n1C12CCC(NC(=S)N3CC4(CN(C)C4)C3)(CC1)CC2` [Example 56], the half-maximal inhibitory concentration (IC50) against human EGFR (L858R/C797S) was 0.9 nM; in assay [1] it was less than 0.3 nM; in assay [2], 0.84 nM; against human EGFR (WT), 0.94 nM.
Turning to `C#Cc1c(-c2cnc3ccccc3c2)c2c(N)ncnc2n1C12CCC(N(C)C(=O)c3cnc(C)cn3)(CC1)C2` [Example 57], the concentration for half-maximal inhibition (IC50) on human EGFR (L858R/C797S) is 4.4 nM; in assay [1] it was less than 0.3 nM; in assay [2], 2.5 nM; against human EGFR (WT) it was 5.9 nM.
